Reference: US20220016101A1 (ACADIA Pharmaceuticals Inc., priority 2018, published 2022)

System: patients with MDD and an inadequate response to an SSRI or SNRI
Assay: Massachusetts General Hospital Sexual Functioning Index (MGH-SFI), Study ACP-103-042
Format: in vivo, human
Design: key to MGH-SFI Ability to Get Sexually Aroused or Excited, treatment effect size / MGH-SFI Ability to Achieve Orgasm, treatment effect size / MGH-SFI Overall Sexual Satisfaction, treatment effect size: Cohen's d = LS mean difference (PIM vs PBO) / SD
From the text: “Massachusetts General Hospital Sexual Functioning Index (MGH-SFI)” is described, for instance, in Labbate and Lare, 2001, Psychother Psychosom. 70(4):221-225. This is a patient facing questionnaire that quantifies sexual dysfunction into 5 functional domains (“interest in sex,” “sexual arousal,” “ability to achieve orgasm,” “ability to maintain erection” (males only), and “sexual satisfaction”). Patients rate each item using a 6-point scale ranging from 1 (good function) to 6 (poor function). High scores indicate poor sexual functioning. […] The determination of the subject's status and eligibility for randomization in Stage 2 was made in a double-blind manner. […] Sexual functioning was assessed using the Massachusetts General Hospital Sexual Functioning Index or MGH-SFI (Labbate and Lare, 2001, Psychother Psychosom. 70(4):221-225). This is a patient facing questionnaire that quantifies sexual dysfunction into 5 functional domains (“interest in sex,” “sexual arousal,” “ability to achieve orgasm,” “ability to maintain erection” [malesonly], and “sexual satisfaction”). Patients rate each item using a 6-point scale ranging from 1 (good function) to 6 (poor function). The time frame for this scale is the past month. This scale was administered at baseline and Week 5 in both stages of the study. High scores indicate poor sexual functioning. In ACP-103-042 the mean scores for MGH-SFI at Baseline was calculated over all 5 domains for males and the 4 domains for females. For MGH-SFI (follow-up version) at Study Weeks 5 and 10, the mean was calculated in the same way as MGH-SFI at Baseline. […] Tables 10-27 summarize the detailed data of MGH-SFI individual items of the overall study group (Tables 10-15), the subgroup of age of <=50 (Tables 16-21) and the subgroup of age of >50 (Table 21-26). In Tables 9-26, ANCOVA=analysis of covariance; OC=observed cases; LSM=least squares mean; CI=confidence interval; SD=standard deviation; SE=standard error. Stage 1: Baseline=Study Week 0, Week 5=Study Week 5; Stage 2: Baseline=Study Week 5, Week 5=Study Weeks 10. LSM from the stage-specific ANCOVA analysis with the change from baseline as the outcome, treatment group as a factor, and the corresponding Baseline value as a covariate. 2-sided p-value for treatment difference from the stage-specific ANCOVA analysis. An treatment effect size (Cohen's d) is calculated using the formula: Effect Size=Least Square mean difference between PIM and PBO/SD. The corresponding 95% confidence interval for an effect size is calculated based on the theoretical probability distribution of the effect size. […] Tables 10-15 and 28-38 summarize the detailed data of MGH-SFI individual items of the overall study group (Tables 10-15), the female subgroup (Tables 33-37) and the male subgroup (Table 38-43). An treatment effect size (Cohen's d) is calculated using the formula: Effect Size=Least Square mean difference between PIM and PBO/SD. The corresponding 95% confidence interval for an effect size is calculated based on the theoretical probability distribution of the effect size. In Tables 10-15 and 28-38, ANCOVA=analysis of covariance; OC=observed cases; LSM=least squares mean; CI=confidence interval; SD=standard deviation; SE=standard error. Stage 1: Baseline=Study Week 0, Week 5=Study Week 5; Stage 2: Baseline=Study Week 5, Week 5=Study Weeks 10. LSM from the stage-specific ANCOVA analysis with the change from baseline as the outcome, treatment group as a factor, and the corresponding Baseline value as a covariate. 2-sided p-value for treatment difference from the stage-specific ANCOVA analysis. An treatment effect size (Cohen's d) is calculated using the formula: Effect Size=Least Square mean difference between PIM and PBO/SD. The corresponding 95% confidence interval for an effect size is calculated based on the theoretical probability distribution of the effect size.

[1] = Stage 1, Overall Study Group, 34 mg QD + SSRI/SNRI
[2] = Stage 1, Subgroup of <=50 Years
[3] = Stage 1, Subgroup of <=50 Years Old
[4] = Stage 1, Subgroup of <=50 Years Old, 34 mg QD + SSRI/SNRI

## CC(C)COc1ccc(CNC(=O)N(Cc2ccc(F)cc2)C2CCN(C)CC2)cc1 [pimavanserin, N-(4-Fluorophenylmethyl)-N-(1-methylpiperidin-4-yl)-N′-(4-(2-methylpropyloxy)phenylmethyl)carbamide]
Stage 1
  MGH-SFI Items mean change stratified by age >50 or ≤50 years vs placebo: differences were only significant for the age >50 years subgroup
  MGH-SFI treatment effect size for pimavanserin compared to placebo: 0.614
Stage 1, Overall Study Group
  MGH-SFI 01: Interest in Sex, Change from Baseline to Week 5 Mean (SE): −0.9 (0.23)
  MGH-SFI 01: Interest in Sex, Change from Baseline to Week 5 Median: −1.0
  MGH-SFI 01: Interest in Sex, Effect Size (Cohen's d): 0.483
  MGH-SFI 01: Interest in Sex, Week 5 Median: 4.0
  MGH-SFI 02: Ability to Get Sexually Aroused or Excited, Change from Baseline to Week 5 Mean (SE): −0.8 (0.17)
  MGH-SFI 02: Ability to Get Sexually Aroused or Excited, Change from Baseline to Week 5 Median: −1.0
  MGH-SFI 02: Ability to Get Sexually Aroused or Excited, Effect Size (Cohen's d): 0.560
  MGH-SFI 02: Ability to Get Sexually Aroused or Excited, Week 5 Median: 4.0
  MGH-SFI 03: Ability to Achieve Orgasm, Change from Baseline to Week 5 Mean (SE): −1.0 (0.24)
  MGH-SFI 03: Ability to Achieve Orgasm, Change from Baseline to Week 5 Median: 0.0
  MGH-SFI 03: Ability to Achieve Orgasm, Effect Size (Cohen's d): 0.609
  MGH-SFI 03: Ability to Achieve Orgasm, Week 5 Median: 4.0
  MGH-SFI 04: (Men) Ability to Get and Maintain an Erection, Change from Baseline to Week 5 Mean (SE): −0.3 (0.78)
  MGH-SFI 04: (Men) Ability to Get and Maintain an Erection, Change from Baseline to Week 5 Median: 0.0
  MGH-SFI 04: (Men) Ability to Get and Maintain an Erection, Effect Size (Cohen's d): 0.105
  MGH-SFI 04: (Men) Ability to Get and Maintain an Erection, Week 5 Median: 3.0
  MGH-SFI 05: Overall Sexual Satisfaction, Change from Baseline to Week 5 Mean (SE): −0.8 (0.25)
  MGH-SFI 05: Overall Sexual Satisfaction, Change from Baseline to Week 5 Median: 0.0
  MGH-SFI 05: Overall Sexual Satisfaction, Effect Size (Cohen's d): 0.524
  MGH-SFI 05: Overall Sexual Satisfaction, Week 5 Median: 4.0
  MGH-SFI 06: Overall Improvement Since Last Medication Change, Effect Size (Cohen's d): 0.539
  MGH-SFI 06: Overall Improvement Since Last Medication Change, Week 5 Median: 4.0
[1]
  MGH-SFI 01: Interest in Sex, Week 5 Mean (SE): 3.8 (0.27)
  MGH-SFI 02: Ability to Get Sexually Aroused or Excited, Week 5 Mean (SE): 3.7 (0.26)
  MGH-SFI 03: Ability to Achieve Orgasm, Week 5 Mean (SE): 3.8 (0.26)
  MGH-SFI 04: (Men) Ability to Get and Maintain an Erection, Week 5 Mean (SE): 3.9 (0.70)
  MGH-SFI 05: Overall Sexual Satisfaction, Week 5 Mean (SE): 3.9 (0.27)
  MGH-SFI 06: Overall Improvement Since Last Medication Change, Week 5 Mean (SE): 3.2 (0.17)
[2]
  MGH-SFI 01: Interest in Sex, Change from Baseline to Week 5 Mean (SE): −0.7 (0.45)
  MGH-SFI 01: Interest in Sex, Change from Baseline to Week 5 Median: 0.0
  MGH-SFI 01: Interest in Sex, Effect Size (Cohen's d): 0.347
  MGH-SFI 01: Interest in Sex, Week 5 Median: 3.0
[3]
  MGH-SFI 02: Ability to Get Sexually Aroused or Excited, Change from Baseline to Week 5 Mean (SE): −0.5 (0.27)
  MGH-SFI 02: Ability to Get Sexually Aroused or Excited, Change from Baseline to Week 5 Median: 0.0
  MGH-SFI 02: Ability to Get Sexually Aroused or Excited, Effect Size (Cohen's d): 0.447
  MGH-SFI 02: Ability to Get Sexually Aroused or Excited, Week 5 Median: 3.0
  MGH-SFI 03: Ability to Achieve Orgasm, Change from Baseline to Week 5 Mean (SE): −0.8 (0.36)
  MGH-SFI 03: Ability to Achieve Orgasm, Change from Baseline to Week 5 Median: 0.0
  MGH-SFI 03: Ability to Achieve Orgasm, Effect Size (Cohen's d): 0.352
  MGH-SFI 03: Ability to Achieve Orgasm, Week 5 Median: 4.0
[4]
  MGH-SFI 02: Ability to Get Sexually Aroused or Excited, Week 5 Mean (SE): 3.4 (0.42)
  MGH-SFI 03: Ability to Achieve Orgasm, Week 5 Mean (SE): 3.8 (0.42)
Stage 1, Subgroup of <=50 Years, 34 mg QD + SSRI/SNRI
  MGH-SFI 01: Interest in Sex, Week 5 Mean (SE): 3.5 (0.45)
Stage 1, female subgroup
  MGH-SFI Ability to Achieve Orgasm, treatment effect size: 0.749
  MGH-SFI Ability to Get Sexually Aroused or Excited, treatment effect size: 0.616
  MGH-SFI Interest in Sex, treatment effect size: 0.561
  MGH-SFI Overall Improvement Since Last Medication Change, treatment effect size: 0.634
  MGH-SFI Overall Sexual Satisfaction, treatment effect size: 0.627
Stage 1, patients with or without remission
  MGH-SFI effects vs placebo when assessed by MDD remission status: robust and significant effects
Stage 2
  MGH-SFI treatment effect size for pimavanserin compared to placebo: 0.412
Stage 2, Overall Study Group
  MGH-SFI 01: Interest in Sex, Change from Baseline to Week 5 Mean (SE): −0.4 (0.16)
  MGH-SFI 01: Interest in Sex, Change from Baseline to Week 5 Median: 0.0
  MGH-SFI 01: Interest in Sex, Effect Size (Cohen's d): 0.227
  MGH-SFI 01: Interest in Sex, Week 5 Median: 4.0
  MGH-SFI 02: Ability to Get Sexually Aroused or Excited, Change from Baseline to Week 5 Mean (SE): −0.4 (0.16)
  MGH-SFI 02: Ability to Get Sexually Aroused or Excited, Change from Baseline to Week 5 Median: 0.0
  MGH-SFI 02: Ability to Get Sexually Aroused or Excited, Effect Size (Cohen's d): −0.025
  MGH-SFI 02: Ability to Get Sexually Aroused or Excited, Week 5 Median: 4.5
  MGH-SFI 03: Ability to Achieve Orgasm, Change from Baseline to Week 5 Mean (SE): −0.4 (0.18)
  MGH-SFI 03: Ability to Achieve Orgasm, Change from Baseline to Week 5 Median: 0.0
  MGH-SFI 03: Ability to Achieve Orgasm, Effect Size (Cohen's d): 0.300
  MGH-SFI 03: Ability to Achieve Orgasm, Week 5 Median: 5.0
  MGH-SFI 04: (Men) Ability to Get and Maintain an Erection, Change from Baseline to Week 5 Mean (SE): −1.0 (0.41)
  MGH-SFI 04: (Men) Ability to Get and Maintain an Erection, Change from Baseline to Week 5 Median: −1.0
  MGH-SFI 04: (Men) Ability to Get and Maintain an Erection, Effect Size (Cohen's d): 0.701
  MGH-SFI 04: (Men) Ability to Get and Maintain an Erection, Week 5 Median: 4.0
  MGH-SFI 05: Overall Sexual Satisfaction, Change from Baseline to Week 5 Mean (SE): −0.7 (0.25)
  MGH-SFI 05: Overall Sexual Satisfaction, Change from Baseline to Week 5 Median: −0.5
